Data from article PMC4298654, “In vivo formation of N-acyl-fumonisin B1” (Mycotoxin Research, 2014).

Test: In vivo formation of NAFB1 and NAHFB1 in rat kidney and liver (HPLC-ESI-MS/MS)
Set-up: N-acyl-derivative in tissue sample, analysis a / N-acyl-derivative in tissue sample, analysis b / N-acyl-derivative in tissue sample, mean: unit not given here
Conditions: 5 days
From the text: The study protocol was approved by the Institutional Animal Care and Use Committee, Richard B. Russell Agricultural Research Center, Athens, GA. Male Sprague–Dawley rats (Harlan Industries, Indianapolis, IN, USA), 7 weeks of age at receipt, were individually housed in stainless steel, wire mesh cages in an environmentally controlled room having a 12-h light/dark cycle. Food (2019 Global Rodent Diet, Teklad, Madison, WI, USA) and fresh tap water were provided ad libitum. After a 1 week acclimation period, the animals were randomly assigned to five groups (n = 2/group) having mean weights of 215 to 216 g (weight range of all animals, 211 to 220 g). For five consecutive days, they were observed, weighed, and given an intraperitoneal injection (ip) of 0 (vehicle), 0.5, 1.0, or 2.0 mg/kg body weight FB1 (provided by R. Eppley, US FDA), 1.0 mg/kg body weight HFB1 (positive control) (Voss et al. [2009]), or vehicle (0.9 % physiological saline). These doses corresponded to 0.69, 1.38, and 2.77 μmol FB1/kg body weight and 2.47 μmol/kg body weight HFB1 per day. In order to compare the effects of FB1 and HFB1, dosages will be expressed as molar concentrations and, on this basis, the high dose of FB1 is roughly equivalent to that of the positive control dose of HFB1. Dosing solutions were sterile filtered and administered at a volume rate of 10 ml/kg body weight. The animals were fasted overnight prior to administration of the final dose. The rats were euthanized (CO2 inhalation and exsanguination) 60 to 90 min following the final dose administration and examined by necropsy. The kidney and liver specimens were fixed in 10 % neutral buffered formalin, processed, and microscopically evaluated without knowledge of the animal’s identity or treatment group. Three representative liver and kidney specimens (100 mg each) were also collected, immediately frozen, and stored (−80 °C) until processed, at which time the tissues were thawed and homogenized in distilled/deionized water (1 ml water/100 mg tissue). The homogenates were lyophilized before they were shipped by overnight courier for the analysis of fumonisin metabolites and sphingolipids.
Lyophilized liver and kidney tissues (100 mg wet weight equivalents) were processed for the quantification of FB1, HFB1, NAFB1, NAHFB1, and sphingolipids. Preparation of the tissue samples was performed according to a previously published method (Harrer et al. [2013]). For the quantification of FB1 and HFB1, a d6-labeled derivative of FB1 (FB1-d6) was used as the internal standard. Synthetic derivatives with a heptadecanoic fatty acid (C17:0) residue were used as internal standards for the quantification of N-acyl-fumonisins and ceramides (N-C17:0-FB1, N-C17:0-HFB1, and N-C17:0-ceramide). The sphingoid bases and their phosphate derivatives were quantified using synthetic derivatives with a C17-acyl-backbone: sphingosine (C17:1), sphingosine-1-phosphate (C17:1), sphinganine (C17:0), sphinganine-1-phosphate (C17:0) as internal standards. The standards were dissolved in methanol:chloroform (2:1, v/v) and then mixed with the tissue samples. The samples spiked with internal standard were kept at room temperature for 30 min before being processed further. The internal standard-spiked samples were first extracted with ethyl acetate, isopropanol, and water (60:30:10, v/v/v) and a second time using methanol, chloroform, and water (60:30:10, v/v/v). The extracts were combined, the solvents removed by evaporation, and the dried samples stored at−80 °C till analyzed.
For the analysis, the samples were reconstituted in a mixture of water, methanol, and tetrahydrofurane (60:24:16, v/v/v). The NAFB1 and NAHFB1 derivatives having the following fatty acyl chain lengths were quantified by HPLC-MS/MS: C16:0, C18:0, C20:0, C22:0, C24:0, C26:0. Furthermore, we also quantified the unsaturated derivatives C24:1 and C26:1. The results are given as the sum of all N-acyl derivatives of FB1 or HFB1. […]

[1] = Kidney, treatment FB1 0,5 mg/kg BW ip
[2] = Kidney, treatment FB1 1 mg/kg BW ip
[3] = Kidney, treatment FB1 2 mg/kg BW ip
[4] = Kidney, treatment HFB1 1 mg/kg BW ip
[5] = Liver, treatment FB1 0,5 mg/kg BW ip
[6] = Liver, treatment FB1 1 mg/kg BW ip
[7] = Liver, treatment FB1 2 mg/kg BW ip
[8] = Liver, treatment HFB1 1 mg/kg BW ip

CCCCCCCC/C=C\CCCCCCCCCCCCCC(=O)N[C@@H](C)[C@@H](O)C[C@H](O)CCCC[C@@H](O)C[C@H](C)C[C@H](O)[C@H](O)[C@H](C)CCCC [HFB1C24:1]
N-acyl-derivative in tissue sample, analysis a [1]: 0,0 | N-acyl-derivative in tissue sample, analysis b [1]: 0,0 | N-acyl-derivative in tissue sample, mean [1]: 0,0 | N-acyl-derivative in tissue sample, analysis a [2]: 0,4 | N-acyl-derivative in tissue sample, analysis b [2]: 0,0 | N-acyl-derivative in tissue sample, mean [2]: 0,2 | N-acyl-derivative in tissue sample, analysis a [3]: 0,1 | N-acyl-derivative in tissue sample, analysis b [3]: 0,0 | N-acyl-derivative in tissue sample, mean [3]: 0,0 | N-acyl-derivative in tissue sample, analysis a [4]: 7,9 | N-acyl-derivative in tissue sample, analysis b [4]: 10,8 | N-acyl-derivative in tissue sample, mean [4]: 9,3 | N-acyl-derivative in tissue sample, analysis a [5]: 0,0 | N-acyl-derivative in tissue sample, analysis b [5]: 0,0 | N-acyl-derivative in tissue sample, mean [5]: 0,0 | N-acyl-derivative in tissue sample, analysis a [6]: 0,0 | N-acyl-derivative in tissue sample, analysis b [6]: 0,1 | N-acyl-derivative in tissue sample, mean [6]: 0,1 | N-acyl-derivative in tissue sample, analysis a [7]: 0,4 | N-acyl-derivative in tissue sample, analysis b [7]: 0,0 | N-acyl-derivative in tissue sample, mean [7]: 0,2 | N-acyl-derivative in tissue sample, analysis a [8]: 156,0 | N-acyl-derivative in tissue sample, analysis b [8]: 140,5 | N-acyl-derivative in tissue sample, mean [8]: 148,3

CCCCCCCCC=CCCCCCCCCCCCCCC(=O)NC(C)C(O)CC(O)CCCCC(O)CC(C)CC(OC(=O)CC(CC(=O)O)C(=O)O)C(OC(=O)CC(CC(=O)O)C(=O)O)C(C)CCCC (stereo not drawn) [FB1C24:1]
N-acyl-derivative in tissue sample, analysis a [1]: 3,6 | N-acyl-derivative in tissue sample, analysis b [1]: 3,5 | N-acyl-derivative in tissue sample, mean [1]: 3,6 | N-acyl-derivative in tissue sample, analysis a [2]: 4,1 | N-acyl-derivative in tissue sample, analysis b [2]: 4,6 | N-acyl-derivative in tissue sample, mean [2]: 4,3 | N-acyl-derivative in tissue sample, analysis a [3]: 5,7 | N-acyl-derivative in tissue sample, analysis b [3]: 4,2 | N-acyl-derivative in tissue sample, mean [3]: 4,9 | N-acyl-derivative in tissue sample, analysis a [4]: 0,0 | N-acyl-derivative in tissue sample, analysis b [4]: 0,0 | N-acyl-derivative in tissue sample, mean [4]: 0,0 | N-acyl-derivative in tissue sample, analysis a [5]: 9,2 | N-acyl-derivative in tissue sample, analysis b [5]: 11,8 | N-acyl-derivative in tissue sample, mean [5]: 10,5 | N-acyl-derivative in tissue sample, analysis a [6]: 3,4 | N-acyl-derivative in tissue sample, analysis b [6]: 6,3 | N-acyl-derivative in tissue sample, mean [6]: 4,9 | N-acyl-derivative in tissue sample, analysis a [7]: 9,0 | N-acyl-derivative in tissue sample, analysis b [7]: 11,1 | N-acyl-derivative in tissue sample, mean [7]: 10,1 | N-acyl-derivative in tissue sample, analysis a [8]: 0,0 | N-acyl-derivative in tissue sample, analysis b [8]: 0,0 | N-acyl-derivative in tissue sample, mean [8]: 0,0

CCCCCCCCCCCCCCCCCCCC(=O)NC(C)C(O)CC(O)CCCCC(O)CC(C)CC(OC(=O)CC(CC(=O)O)C(=O)O)C(OC(=O)CC(CC(=O)O)C(=O)O)C(C)CCCC (stereo not drawn) [FB1C20:0]
N-acyl-derivative in tissue sample, analysis a [1]: 0,2 | N-acyl-derivative in tissue sample, analysis b [1]: 0,5 | N-acyl-derivative in tissue sample, mean [1]: 0,4 | N-acyl-derivative in tissue sample, analysis a [2]: 0,2 | N-acyl-derivative in tissue sample, analysis b [2]: 0,0 | N-acyl-derivative in tissue sample, mean [2]: 0,1 | N-acyl-derivative in tissue sample, analysis a [3]: 0,0 | N-acyl-derivative in tissue sample, analysis b [3]: 0,6 | N-acyl-derivative in tissue sample, mean [3]: 0,3 | N-acyl-derivative in tissue sample, analysis a [4]: 0,0 | N-acyl-derivative in tissue sample, analysis b [4]: 0,0 | N-acyl-derivative in tissue sample, mean [4]: 0,0 | N-acyl-derivative in tissue sample, analysis a [5]: 0,0 | N-acyl-derivative in tissue sample, analysis b [5]: 0,0 | N-acyl-derivative in tissue sample, mean [5]: 0,0 | N-acyl-derivative in tissue sample, analysis a [6]: 0,0 | N-acyl-derivative in tissue sample, analysis b [6]: 0,0 | N-acyl-derivative in tissue sample, mean [6]: 0,0 | N-acyl-derivative in tissue sample, analysis a [7]: 0,0 | N-acyl-derivative in tissue sample, analysis b [7]: 0,0 | N-acyl-derivative in tissue sample, mean [7]: 0,0 | N-acyl-derivative in tissue sample, analysis a [8]: 0,0 | N-acyl-derivative in tissue sample, analysis b [8]: 0,0 | N-acyl-derivative in tissue sample, mean [8]: 0,0

CCCCCCCCCCCCCCCCCCCC(=O)N[C@@H](C)[C@@H](O)C[C@H](O)CCCC[C@@H](O)C[C@H](C)C[C@H](O)[C@H](O)[C@H](C)CCCC [HFB1C20:0]
N-acyl-derivative in tissue sample, analysis a [1]: 0,0 | N-acyl-derivative in tissue sample, analysis b [1]: 0,0 | N-acyl-derivative in tissue sample, mean [1]: 0,0 | N-acyl-derivative in tissue sample, analysis a [2]: 0,0 | N-acyl-derivative in tissue sample, analysis b [2]: 0,1 | N-acyl-derivative in tissue sample, mean [2]: 0,1 | N-acyl-derivative in tissue sample, analysis a [3]: 0,0 | N-acyl-derivative in tissue sample, analysis b [3]: 0,0 | N-acyl-derivative in tissue sample, mean [3]: 0,0 | N-acyl-derivative in tissue sample, analysis a [4]: 3,1 | N-acyl-derivative in tissue sample, analysis b [4]: 0,6 | N-acyl-derivative in tissue sample, mean [4]: 1,8 | N-acyl-derivative in tissue sample, analysis a [5]: 0,0 | N-acyl-derivative in tissue sample, analysis b [5]: 0,2 | N-acyl-derivative in tissue sample, mean [5]: 0,1 | N-acyl-derivative in tissue sample, analysis a [6]: 0,2 | N-acyl-derivative in tissue sample, analysis b [6]: 0,1 | N-acyl-derivative in tissue sample, mean [6]: 0,2 | N-acyl-derivative in tissue sample, analysis a [7]: 0,0 | N-acyl-derivative in tissue sample, analysis b [7]: 0,0 | N-acyl-derivative in tissue sample, mean [7]: 0,0 | N-acyl-derivative in tissue sample, analysis a [8]: 8,9 | N-acyl-derivative in tissue sample, analysis b [8]: 13,1 | N-acyl-derivative in tissue sample, mean [8]: 11,0
